Experiments:
[1] = microbe, parasite or virus in culture; conditions: Mycobacterium tuberculosis, 72 h, read-out: pIC50 (converted)
[2] = microbe, parasite or virus in culture; conditions: Mycobacterium tuberculosis, 96 h, read-out: pIC50 (converted)

Compound | IC50 [1] [µM] | IC50 [2] [µM]
CCOC(=O)c1ccc(N2CCC(CCO)CC2)nc1 | 84 | 198
c1cc2c(cc1C1=NN=C(NC3CC3)SC1)OCCO2 | 158 | 160
COc1cccc(N2Cc3nc(=O)n(C(C)C)n3C2=O)c1 | > 50.1 | > 50.1
Cc1cc(=O)[nH]c(-n2nc(-c3ccccc3)cc2N)n1 | 43.5 | > 50.1
COc1ccccc1OCCn1c(C)c(C)oc1=O | > 50.1 | > 50.1
CC(=O)NCCCNCc1ccc(Br)c2cccnc12 | 278 | > 501
OCCNC1CCCC1 | > 501 | > 501
CCN1CCCC1CNC(=O)c1cccc(C)n1 (stereo not given) | > 501 | > 501
N#Cc1cccc(NCC(=O)NCc2ccco2)c1 | 223 | 108
Cc1ncsc1CCC(=O)N1CCCC1c1cccnc1 (stereo not given) | > 50.1 | > 50.1
CCc1cccc(S(=O)(=O)N2CC[C@H](N)C2)c1 | 183 | > 501
CCn1c(C(=O)N2CCOCC2C)cc2ccccc21 (stereo not given) | 191 | 303
CNCC(=O)NC1CCN(Cc2ccc(Br)cc2)CC1 | 257 | 294
COCCN(Cc1ccoc1)S(=O)(=O)c1ccc(F)c(Cl)c1 | > 50.1 | > 50.1
O=C(NCc1ccc2c(c1)OCCCO2)c1cscn1 | 107 | 111
O=C(NCc1cccnc1)C1COc2ccccc2O1 (stereo not given) | > 501 | > 501
O=C1N(c2ccccc2)C[C@H]2CN(C3CCC3)CCN12 | 7.22 | –
Cc1cc(Cl)ccc1NC(=O)CSc1n[nH]c(N)n1 | > 501 | > 501
COCCCSc1ccc(NCc2ccc(C)cn2)cc1 | > 50.1 | 49.1
COc1cccc(CCC2CCCN(C(=O)c3ccc(OC)o3)C2)c1 (stereo not given) | 27.7 | 23
Cc1cccc(OCC(O)CN)c1 (stereo not given) | 179 | 345
COc1cc(CCC(=O)N2CCC(c3cc4nccnc4[nH]3)CC2)on1 | 30.7 | > 50.1
CN(C)[C@H]1C[C@@H](Cc2cc(-c3ccc(F)cc3)on2)C1(C)C | > 50.1 | > 50.1
CCOc1ccc(C(C)=O)cc1CN1CCCC1 | 59.8 | 111

Compound | IC50 [1] [µM] | IC50 [2] [µM]
Cc1ccc(C(C)C)c(OCC(O)CNCCO)c1 (stereo not given) | 158 | 127
CS(=O)(=O)NCC1CCCN(C(=O)Nc2ccccc2Cl)C1 (stereo not given) | > 50.1 | > 50.1
CC(=O)N1CCC(N2CCOC[C@H]2c2nc(-c3ccc(Cl)s3)c[nH]2)CC1 | – | > 50.1
Cc1ncc(Cn2cc(F)ccc2=O)s1 | > 501 | > 501
N#Cc1cc(Br)cc(S(=O)(=O)NCCCN)c1 | > 501 | > 501
N[C@H]1CCN(S(=O)(=O)c2ccc(F)c(C(F)(F)F)c2)C1 | 100 | 171
NCCn1cc(C(=O)NCCSC2CCCCC2)nn1 | 178 | 129
CN1[C@H](CN2CCCC2)C[C@@H]2CN(C(=O)c3cccn3C)CC[C@@H]21 | – | > 50.1
CCOc1cccc(CNc2nc(N(C)C)n[nH]2)c1 | 57.4 | 34.2
CCCn1cc(CNc2ccc(F)cn2)cn1 | 160 | 234
O=C(COC(=O)c1cccs1)NCc1ccco1 | 204 | > 501
NCc1cnn(-c2cccc(Cl)c2)c1 | 258 | 260
CC1CCCCN1C(=O)COCc1nc(-c2ccncc2)no1 (stereo not given) | > 50.1 | > 50.1
CN(Cc1ccc(Br)o1)C(=O)c1nccnc1N | 210 | 414
CC(Nc1ccc(OC(F)F)cn1)c1ccncc1 (stereo not given) | 195 | 246
C=C(C)COc1c(Cl)cc(C(N)=O)cc1OC | 223 | 295
CN(C)c1cc(C(=O)Nc2ccccc2F)ccn1 | 237 | 321
Cc1ccc(C(=O)NCCNS(=O)(=O)C(C)C)cc1F | 155 | > 501
CN(Cc1cccc(C#N)c1)C(=O)C1CC1 | > 501 | 133
C=C(C)Cn1c(S(C)(=O)=O)nc2ccccc21 | 135 | > 501
CCCNC(=O)c1ccc2snnc2c1 | 153 | 169
O=C(NCCNc1ccc(C(F)(F)F)cn1)c1ccc(Cl)cc1F | 25.1 | 19.3
CN(C)S(=O)(=O)c1cc2c(cc1Cl)OCCO2 | 209 | > 501
CCN(CCn1cccn1)C(=O)c1cc(C(C)C)no1 | > 501 | > 501

Compound | IC50 [1] [µM] | IC50 [2] [µM]
Cc1ccc2c(c1)nc1n2[C@@H](CNC(=O)c2cccnc2)COC1 | > 50.1 | > 50.1
CCOC(=O)N1CCC(NC(=O)c2ccsc2)CC1 | 137 | > 501
CC(=O)N1CCc2onc(-c3ccc(F)c(F)c3)c2C1 | 393 | 262
CC(N)Cc1ccccc1Sc1ccc(O)cc1 (stereo not given) | > 50.1 | > 50.1
Cc1nnc(CN(Cc2ccccc2Br)C2CC2)o1 | 20.1 | –
Cc1nc(CNC(=O)Nc2ccc3c(c2)CCCC(=O)N3)sc1C | > 50.1 | –
CC(Cn1cccn1)NS(=O)(=O)Cc1ccccc1 (stereo not given) | > 50.1 | –
COc1cnc(C2(O)CCN(C(=O)c3cccnc3)CC2)c(OC)n1 | > 50.1 | –
Cn1ccc(CN2CCOCC23CCNCC3)n1 | – | > 50.1
CCCc1nc(CN(CCO)Cc2cc(Br)ccc2F)no1 | 18.9 | –
COc1ccc(S(=O)(=O)N2CCC(Cn3ccnc3)CC2)cc1 | – | > 50.1
CCN(C(=O)CCCOC)C(c1ccc(Cl)cc1)c1ccccn1 (stereo not given) | – | > 50.1
CN1CCCC1c1cc2cccnc2n1Cc1ccc(F)cc1 (stereo not given) | – | > 50.1
Cc1nc(CN2CCC(NS(C)(=O)=O)CC2)co1 | > 50.1 | –
Cc1nn(C)c2c(N3CCN(C)CC3)nc(C3CC3)nc12 | 47.6 | –
CC(C)CN1Cc2nc(N3CCCC3)ncc2C1=O | – | > 50.1
CCc1nnc(CN(C)CC2CCCCC2)o1 | > 50.1 | –
O=C1N(Cc2ccc(F)cc2)CCCC12CCN(C1CCSCC1)C2 (stereo not given) | > 50.1 | –
CO[C@H]1C[C@@H]2CN(C(=O)Cc3ccc(C)s3)C[C@@H]2C1 | – | > 50.1
CCc1c(C)nc(-n2nc(-c3cccs3)cc2N)[nH]c1=O | 44 | –
CN(C)c1ccc(CNC(=O)c2ccc(Cl)cc2F)cc1 | – | > 50.1
CC(C)CCC(=O)NCC(=O)N1CCCCCC1c1ccco1 (stereo not given) | – | 6.55
NC1CCS(=O)(=O)c2ccc(Br)cc21 (stereo not given) | – | 89.1
Cc1ccc(NC(=O)c2ncc(C(N)=O)cc2Cl)cc1F | > 50.1 | –

Compound | IC50 [1] [µM] | IC50 [2] [µM]
Cc1noc(C[C@@H]2COC[C@H]3CN(C(=O)C4=CCCC4)C[C@@H]23)n1 | > 50.1 | –
Cc1nc(-c2cc(F)c3c(c2)CC(CN)O3)c[nH]1 (stereo not given) | 2.55 | –
CN1CCN(C(=O)c2cc3sccc3n2Cc2ccc(Cl)cc2)CC1 | – | > 50.1
Cc1cccc(N2CCC3(CCCC(=O)N3)CC2)n1 | – | > 50.1
c1ccc(-c2nc3c(c(NCCc4c[nH]cn4)n2)CCNC3)cc1 | 10.9 | –
COc1ccc(C[C@H]2CN(C(=O)CN(C)C)CC[C@H]2OC)cc1 | – | > 50.1
COc1cc(C(=O)NCCc2ccccc2OC)on1 | > 50.1 | –
O=C(CCC(F)(F)F)NCC1CCCS1 (stereo not given) | 8.35 | –
O=C(c1nn(-c2ccccc2F)cc1O)N1CCC2(CC1)OCCO2 | – | > 50.1
Cc1cccnc1CN(C)C(C(=O)O)c1ccc(-c2ccn[nH]2)cc1 (stereo not given) | > 50.1 | –
CO[C@H]1C[C@@H]2CN(C(=O)c3ccc(C)s3)C[C@@H]2C1 | – | 22.3
Fc1ccccc1CN1CCCC2(CCN(c3ncccn3)C2)C1 (stereo not given) | 30.4 | –
Cc1cc(F)ccc1CN1CCCC(O)(CN2CCCC2)C1 (stereo not given) | > 50.1 | –
Cc1cnn(-c2cccc(N3CCN(c4cc(C)nc(C)n4)CC3)n2)c1 | – | > 50.1
N#CCCCn1nnnc1Cc1ccc(Br)cc1 | > 50.1 | –
Cc1cccc(-c2noc([C@@H]3Cc4nc[nH]c4CN3)n2)c1 | 1.94 | –
NCCn1nc(C2CCN(C(=O)Cc3ccccc3)C2)c2nccnc21 (stereo not given) | – | > 50.1
CCc1nc2c(NCC3COc4c(cccc4OC)C3)ncnc2o1 (stereo not given) | – | > 50.1
COc1cccc(CN2CCCC2c2c(C)nn(C)c2C)c1 (stereo not given) | 46.9 | –
Cc1noc(C)c1-c1cccc(C2CN(CC(=O)N(C)C)CCO2)n1 (stereo not given) | – | > 50.1
CCSc1ncc(CN2CCN(c3ncc(C)c(N)n3)CC2)cn1 | – | 20.4
Cc1cccc(NCc2ncc(C(C)(C)C)o2)c1 | – | 12
Cc1cc(N2Cc3cnn(CCO)c3C2)nc(-c2ccccc2O)n1 | > 50.1 | –
COCCN(Cc1ccccc1)Cc1nc(-c2ccsc2)no1 | 20.5 | –

Compound | IC50 [1] [µM] | IC50 [2] [µM]
COc1coc(CN2CCCC(CCc3c(F)cccc3F)C2)cc1=O (stereo not given) | – | 9.45
Cc1ccccc1NC1CCN(C(=O)CCc2ccco2)CC1 | > 50.1 | –
O=c1oc(-c2ccc(F)cc2)nn1CC1CCOC1 (stereo not given) | 34.3 | –
CNS(=O)(=O)c1cccc(C(C)NCc2ccc(C)c(C)c2)c1 (stereo not given) | – | > 50.1
CCCn1cc(Cl)c(C(=O)N2C[C@@H](O)[C@H](Oc3ccccc3)C2)n1 | > 50.1 | –
CN(CCCOc1ccccc1)C(=O)c1csc(-c2nnc[nH]2)n1 | – | > 50.1
O=C1N(Cc2ccc(F)c(F)c2)CCCC12CCN(C1CCCC1)C2 (stereo not given) | > 50.1 | –
Cc1csc(N2CCCN(CCC(=O)NC(N)=O)CC2)n1 | 39.4 | –
CCNC(=O)CCCC(=O)N1CCc2cc(Cl)cc(Cl)c2C1 | > 50.1 | –
Cc1ccc(CNCC2Cn3nnc(-c4cccc(F)c4)c3CO2)o1 (stereo not given) | 8.85 | –
CCOCc1nnc(NCc2ccsc2)o1 | – | 24.8
Cc1cccc2cc(CO)c(N3Cc4cnc(C(C)(C)C)nc4C3)nc12 | > 50.1 | –
N#Cc1csc(CNCCOc2ccccc2)c1 | – | > 50.1
Cc1cc(CC(=O)NCCCc2ccncc2)on1 | > 501 | –
CC(C1CC1)N(C)Cc1nnc(-c2ccco2)o1 (stereo not given) | – | > 50.1
Cc1cc2c(cc1Cl)C=CC1(CCN(CC(=O)N3CCCC3)CC1)O2 | > 50.1 | –
COc1cccc(-c2cnc(CNC(C)(C)c3nc(C)cs3)o2)c1 | – | > 50.1
CCCC1c2cccn2CCN1C(=O)Cn1cnc2sc(C)cc2c1=O (stereo not given) | – | > 50.1
CN(C)CCN1C(=O)CCC12CCCN(C(=O)c1cccnc1)CC2 (stereo not given) | – | > 50.1
Cc1cc(NCCN)nc(-c2ccccc2O)n1 | > 50.1 | –
